Reference: patent US10828316B2, “Method of treating bacterial infections” (priority 2016, dated 2020)

Tests used:
S. typhimurium EN0466 = test: MIC; type: cell-based, Salmonella typhimurium; conditions: in FdUrd+trimethoprim+uridine combination
K. oxytoca EN0392 = test: MIC; type: cell-based, Klebsiella oxytoca; conditions: in FdUrd+trimethoprim+uridine combination
E. coli EN001 = test: MIC; type: cell-based, Escherichia coli
E. coli EN002 = test: MIC; type: cell-based, Escherichia coli; conditions: Combination 1 (AZT+trimethoprim+uridine)
K. pneumoniae EN011 = test: MIC; type: cell-based, Klebsiella pneumoniae; conditions: Klebsiella pneumoniae, EN011, K. pneumoniae EN011
E. coli EN013 = test: MIC; type: cell-based, Escherichia coli; conditions: Escherichia coli, EN013, E. coli EN013
P. aeruginosa EN015 = test: MIC; type: cell-based, Pseudomonas aeruginosa; conditions: Pseudomonas aeruginosa, EN015, P. aeruginosa EN015
E. coli EN0001 = test: MIC; type: cell-based; conditions: in AZT+trimethoprim+uridine combination
E. coli EN0135 = test: MIC; type: cell-based; conditions: in AZT+trimethoprim+uridine combination
E. coli EN0136 = test: MIC; type: cell-based; conditions: in AZT+trimethoprim+uridine combination
E. coli EN0138 = test: MIC; type: cell-based; conditions: in AZT+trimethoprim+uridine combination
K. pneumoniae EN0142 = test: MIC; type: cell-based; conditions: in AZT+trimethoprim+uridine combination
K. pneumoniae EN0143 = test: MIC; type: cell-based
K. pneumoniae EN0401 = test: MIC; type: cell-based
K. pneumoniae EN0436 = test: MIC; type: cell-based; conditions: in AZT+trimethoprim+uridine combination
K. pneumoniae EN0437 = test: MIC; type: cell-based
P. aeruginosa EN0004 = test: MIC; type: cell-based
A. baumannii EN0007 = test: MIC; type: cell-based, A. baumanii
S. flexneri APV00906 = test: MIC; type: cell-based; conditions: S. flexneri APV00906; in FdUrd+trimethoprim+uridine combination
S. flexneri APV00907 = test: MIC; type: cell-based; conditions: S. flexneri APV00907
S. sonnei APV00908 = test: MIC; type: cell-based; conditions: S. sonnei APV00908
[1] = system: Helicobacter pylori APV00918; test: MIC; type: cell-based; conditions: in FdUrd+trimethoprim+uridine combination
Source text: (§1) Inhibition of Heliobacter is important in view of increasing resistance and its association to gastric cancer.

[2] = system: Helicobacter pylori ATTC43504; test: MIC; type: cell-based; conditions: in AZT+trimethoprim+uridine combination
Source text: as §1

[3] = in vivo; cited from earlier work
[4] = in FdUrd+trimethoprim+uridine combination
[5] = in didanosine+trimethoprim+uridine combination
[6] = Combination 1 (AZT+trimethoprim+uridine)
[7] = in AZT+trimethoprim+uridine combination
[8] = Combination 2 (same mixed with thymidine)

O=c1ccn([C@@H]2O[C@H](CO)[C@@H](O)[C@H]2O)c(=O)[nH]1 [Uridine, uridine]
13 µg/mL: MIC (S. typhimurium EN0466) | MIC (K. oxytoca EN0392) | MIC (E. coli EN001; [4]) | MIC (E. coli EN001; [5]) | MIC (K. pneumoniae EN011; [5]) | MIC (E. coli EN0001) | MIC (E. coli EN0135) | MIC (E. coli EN0136) | MIC (K. pneumoniae EN0142) | MIC (K. pneumoniae EN0436) | MIC [2]
< 0.8 µg/mL: MIC (E. coli EN013; [6]) | MIC (E. coli EN013; [8])
1.6 µg/mL: MIC (E. coli EN002) | MIC (E. coli EN013; [4]) | MIC (E. coli EN013; [5]) | MIC (E. coli EN0138)
3.2 µg/mL: MIC (K. pneumoniae EN011; [6])
3 µg/mL: MIC (S. sonnei APV00908; [7])
>400 µg/mL: MIC (K. pneumoniae EN0143; [4]) | MIC (K. pneumoniae EN0143; [5]) | MIC (K. pneumoniae EN0401; [4]) | MIC (K. pneumoniae EN0401; [5]) | MIC (K. pneumoniae EN0437; [4]) | MIC (K. pneumoniae EN0437; [5]) | MIC (P. aeruginosa EN0004; [7]) | MIC (P. aeruginosa EN0004; [4]) | MIC (P. aeruginosa EN0004; [5]) | MIC (A. baumannii EN0007; [7]) | MIC (A. baumannii EN0007; [4]) | MIC (A. baumannii EN0007; [5]) | MIC (S. flexneri APV00906) | MIC (S. flexneri APV00907; [4]) | MIC (S. sonnei APV00908; [4])
7-8%: oral bioavailability [3]
< 2 µg/mL: MIC (E. coli EN013; [7])
30 µg/mL: MIC (K. pneumoniae EN011; [7])
6 µg/mL: MIC (K. pneumoniae EN011; [4]) | MIC [1]
500 µg/mL: MIC (P. aeruginosa EN015; [7])
200 µg/mL: MIC (P. aeruginosa EN015; [6]) | MIC (P. aeruginosa EN015; [8]) | MIC (S. flexneri APV00907; [7])
